# Results: patent publication US20230382871A1, “CSF1R KINASE INHIBITOR AND USE THEREOF” (SHANGHAI INSTITUTE OF MATERIA MEDICA, CHINESE ACADEMY OF …, priority 2020, published 2023)
# “And” between values parts separate entries of the source, which are not always exact repeats. Identical values can stand only once.
# What was measured:
# BMDM cells = test: CCK8 cell proliferation inhibition assay on CSF1-stimulated bone marrow-derived macrophages; type: cell-based, mice (BALB/c); conditions: Mus musculus, 72 h exposure
# Description: Mice (BALB/c) were subjected to euthanasia and then immersed in 75% alcohol for 3-5 min. The tibias and femurs of the mice were removed with ophthalmic forceps and ophthalmic clips on an ultraclean table. The tibial and femoral joints were cut off and bone marrow cells were washed out with a sterile buffer. Bone marrow cells were filtered with a 70 µm nylon membrane. The filtrate was centrifuged and the supernatant was discarded. An erythrocyte lysate was added to the pellets, which were allowed to incubate for 3-4 min. Then, a sterile buffer was added to stop the lysis reaction. The reactant was centrifuged and the supernatant was discarded, thereby yielding bone marrow cell pellets. The cells were cultured in 1640 medium (supplemented with FBS and 10 ng/mL of CSF1) for 5 to 7 days and identified as macrophages by flow cytometry. CCK8 cell counting kits were used in this assay. Bone marrow-derived macrophages, after induction by CSF1 for 5 to 7 days, were seeded into 96-well culture plates and allowed to incubate overnight. Then, the cells were exposed to compounds at various concentrations for 72 h. A blank control group was set. 10 μL of CCK8 reagent was added to each well and the places were placed in an incubator for 4 to 12 h. The plates were read with a microplate reader at a wavelength of 450 nm. […] Each experiment was independently repeated for three times.
# [1] = system: human colorectal cancer HT-29 subcutaneous xenografts; test: Human colorectal cancer HT-29 subcutaneous xenografts in nude mice; type: in vivo, BALB/c nude mice; conditions: for Body Weight (g) D 21 / RTV (mean ± SD) / TV (mm3, mean ± SD) D 21: D 21; for T/C (%): Day 21
# Excerpt: BALB/c female nude mice of 6 weeks old were used, and were provided by Shanghai Lingchang Biotechnology Co., Ltd.
# Human colorectal cancer HT-29 cells were subcutaneously inoculated into the right axillary fossa of a nude mouse (5×10^6 cells/mouse). After a xenograft was formed, the tumor was transferred to a nude mouse for 1 passage.
# Tumor tissues at the vigorous growth stage were removed and cut into pieces of approximately 1.5 mm^3. The tumor fragments were inoculated subcutaneously into the right axillary fossa of nude mice under aseptic conditions. The diameters of the subcutaneous xenografts in nude mice were measured with a vernier caliper. The animals were randomly grouped after the xenografts reached an average volume of about 120 mm^3. Compound I was administered orally at doses of 20 mg/kg, 10 mg/kg and 5 mg/kg twice a day for 21 consecutive days. An equal volume of a blank preparation was administered orally twice a day for 21 consecutive days. The positive control drug Axitinib was administered orally at a dose of 40 mg/kg group twice a day for 21 consecutive days. An equal volume of water for injection was administered to the animals in the solvent group. Throughout the experiment, the diameters of the xenografts were measured twice a week and the mice were weighed at the same time. The tumor volume (TV) was calculated as TV=½×a×b^2, where “a” and “b” denote the length and width of a tumor, respectively. The relative tumor volume (RTV) was calculated from the measurement results with the calculation formula RTV=Vt/V0, in which V0 is the tumor volume measured upon administration after grouping (i.e., D0) and Vt is the tumor volume from each measurement. The evaluation index of anti-tumor activity is the relative tumor proliferation rate T/C (%), which is calculated as T/C (%)=(TRTV/CRTV)×100%, in which TRTV denotes the RTV from the treatment group and CRTV denotes the RTV from solvent group.
# [2] = system: M2-type macrophage marker CD206 in U87MG tumor tissues; test: Immunohistochemistry of M2-type macrophage marker CD206 in U87MG tumor tissues; type: in vivo, nude mice
# Description: At the end of the in vivo experiments, U87MG and HT-29 xenografts in nude mice were removed and fixed with […] to prepare paraffin sections.
# Expression of individual proteins was assessed using multiplicative quick score method (MQS). This evaluation method takes into account both the staining intensity and the staining range. The method estimates the proportion of positive cells and gives a range score from 1 to 6 (1=1%-4%; 2=5%-19%; 3=20%-39%; 4=40%-59%; 5=60%-79%; 6=80%-100%). The average intensity score of positive stained cells was 0 to 3 (0=no staining; 1=weak staining; 2=moderate staining; 3=strong staining). The total score a (minimum 0 and maximum 18) is then calculated by multiplying the range score by the intensity score.
# For detecting the changes in the macrophage marker F4/80 and M2-type macrophage marker CD206 in the U87MG tumor tissues, quantitative analysis (solvent: n=6, blank preparation: n=6, Compound I (10 mg/kg): n=6, Compound I (20 mg/kg): n=6, Compound I (40 mg/kg): n=6, Axitinib: n=4) was performed on all sections and the experimental data were analyzed for significant differences using the t-test. * denotes p<0.05 as compared with the blank preparation group, ** denotes p<0.01 as compared with the blank preparation group, and denotes p<0.001 as compared with the blank preparation group.
# [3] = system: human glioma U87MG brain in situ transplantation; test: Survival in U87MG brain in situ transplantation model in nude mice; type: in vivo, BALB/cA nude mice; conditions: for ILS (%), Increase in Life Span: vs solvent group MST
# [4] = system: solid tumors, such as brain gliomas; test: Clinical trial, preliminary efficacy; type: in vivo; conditions: particularly high-grade brain gliomas, data not shown
# [5] = 40 mg/kg, implantation day as Day 0
compound,measurement,setting,value
Cc1cc(NC(=O)c2cccc3cc(-c4cccc5[nH]nc(N)c45)ccc23)ccc1F [Compound I],IC50,BMDM cells,93 nM
same,Body Weight (g) D 0,[1]; 5 mg/kg bid × 21 po,19.7 g
same,"TV (mm3, mean ± SD) D 0",[1]; 5 mg/kg bid × 21 po,113 ± 28 mm3
same,Body Weight (g) D 21,[1]; 5 mg/kg bid × 21 po,18.6 g
same,RTV (mean ± SD),[1]; 5 mg/kg bid × 21 po,3.76 ± 0.87
same,"TV (mm3, mean ± SD) D 21",[1]; 5 mg/kg bid × 21 po,427 ± 157 mm3
same,T/C (%),[1]; 5 mg/kg bid × 21 po,42.70%
same,Body Weight (g) D 0,[1]; 10 mg/kg bid × 21 po,19.8 g
same,"TV (mm3, mean ± SD) D 0",[1]; 10 mg/kg bid × 21 po,120 ± 33 mm3
same,Body Weight (g) D 21,[1]; 10 mg/kg bid × 21 po,18.1 g
same,RTV (mean ± SD),[1]; 10 mg/kg bid × 21 po,2.75 ± 1.04
same,"TV (mm3, mean ± SD) D 21",[1]; 10 mg/kg bid × 21 po,336 ± 173 mm3
same,T/C (%),[1]; 10 mg/kg bid × 21 po,31.27%
same,Body Weight (g) D 0,[1]; 20 mg/kg bid × 21 po,20.1 g
same,"TV (mm3, mean ± SD) D 0",[1]; 20 mg/kg bid × 21 po,121 ± 35 mm3
same,Body Weight (g) D 21,[1]; 20 mg/kg bid × 21 po,18.2 g
same,RTV (mean ± SD),[1]; 20 mg/kg bid × 21 po,1.53 ± 0.25
same,"TV (mm3, mean ± SD) D 21",[1]; 20 mg/kg bid × 21 po,188 ± 69 mm3
same,T/C (%),[1]; 20 mg/kg bid × 21 po,17.38%
same,"inhibition rate of CD206 expression, U87MG tumor tissue",[2]; 10 mg/kg dose group,34.48%
same,"inhibition rate of CD206 expression, U87MG tumor tissue",[2]; 40 mg/kg dose group,70.69%
same,"Median survival time, MST",[3]; 20 mg/kg po twice a day from Day 8,54 days and 54.0 days
same,"ILS (%), Increase in Life Span",[3]; 20 mg/kg,17.39%
same,"Median survival time, MST",[3]; 40 mg/kg po twice a day from Day 8,58.5 days
same,day of first death in the group,[3]; [5],43 days
same,day of last death in the group,[3]; [5],75 days
same,"ILS (%), Increase in Life Span",[3]; 40 mg/kg,27.17%
same,preliminary efficacy in clinical trial,[4],good therapeutic efficacy
